Assay [1] deals with HUFEC. As to the kind of experiment: Cell Migration Assay (CMA) Test, inhibitory rate with control (-) correction. The assay is classed as cell-based, human. The note with it: Homo sapiens, 24 h, 125 μl of 0.32 mM sample solution in 4.0 ml medium, 80% or more = remarkable. In a few lines:
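Confluent HUFEC monolayers were scratch-wounded, then cultured 24 h at 37 °C, 5% CO2 in M199 (2+) medium with compound added as 125 μl of a 0.32 mM solution (3.2% DMSO) per 4 ml. Giemsa-stained cells migrating into 1 mm×1 mm blocks counted; inhibition % calculated relative to control (+) and control (−) wells.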

The test system of assay [2] is human umbilical-vein endothelial cells (HUVEC). As to the kind of experiment: Tube Formation Assay (TFA) Test, HUVEC in collagen gel. The assay is classed as cell-based. The note with it: Homo sapiens, HUVEC, Tables 75-83; 0.32 mM sample solution; method as for Compounds 1 through 60; read-out: TFA Inhibition rate (%). In outline: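 Inhibition rate (%) of tube formation is computed from tube lengths against control (+) and control (-), measured after 20 h at 37 °C in M-199 with 20% FCS, 30 ng/ml b-FGF and 0.1 μM PMA. Samples were applied to HUVEC on collagen and covered by a second collagen layer (double-layer gel).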

The inhibition is the change of the read-out against control, counted positive when it falls.

On to `COC(=O)C1=CO[C@@H](OC(=O)NCc2ccc(F)cc2F)[C@H]2[C@@H]1CC[C@@H]2C` [I-195], for which the values for the inhibition at 320 µM (stock) in assay [1] and in assay [2] were 15.7% and 3.7%, respectively.
Regarding `CNC(=O)O[C@@H]1OC=C(C(=O)N2CCN(CCO)CC2)[C@H]2CC=C(C)[C@@H]12` [I-309], the results for the inhibition at 320 µM (stock) in assay [1] and in assay [2] were 48% and 5.2%, respectively.
For `COC(=O)C1=CO[C@@H](OC(=O)N(C)CCN(C)C)[C@H]2[C@@H]1CC[C@@H]2C` [I-189] the same measures were 8.5% and 4.7%.
For `CNC(=O)O[C@@H]1OC=C(C(=O)Nc2nccs2)[C@H]2C[C@@H]3O[C@]3(C)[C@@H]12` [I-62] the same measures were 10.6% and 28.4%.
As for `COC(=O)C1=CO[C@@H](OC(=O)NCCS)[C@@H]2C(C)=CC[C@H]12` [I-134], the figures for the inhibition at 320 µM (stock) in assay [1] and in assay [2] were 7.1% and 8.6%, respectively.
For `CNC(=O)O[C@@H]1OC=C(C(N)=O)[C@H]2C[C@@H]3O[C@]3(C)[C@@H]12` [I-61] the same measures were 82.1% and 18.9%.
The like results for `CONC(=O)O[C@@H]1OC=C(C(=O)OC)[C@H]2CC[C@H](C)[C@@H]12` [I-238] were, in that order, 5.9% and 17.8%.
The like results for `COC(=O)C1=CO[C@@H](OC(=O)NCCSCc2ccccc2)[C@H]2[C@@H]1CC[C@@H]2C` [I-253] were, in that order, 25.1% and 5.7%.
Take `COC(=O)C1=CO[C@@H](OC(=O)NCc2ccc(OC(F)(F)F)cc2)[C@@H]2C(C)=CC[C@H]12` [I-106]: the inhibition at 320 µM (stock) in assay [1] came out at 6.7%; in assay [2], 26.8%.
The like results for `COC(=O)C1=CO[C@@H](OC(=O)N(CCO)CCO)[C@H]2[C@@H]1CC[C@@H]2C` [I-240] were, in that order, 8.5% and 7.4%.
The like results for `COC(=O)C1=CO[C@@H](OC(=O)NCc2ccc(S(N)(=O)=O)cc2)[C@@H]2C(C)=CC[C@H]12` [I-133] were, in that order, 3.9% and 9.5%.
The like results for `COC(=O)C1=CO[C@@H](OC(=O)NCCc2ccc(O)cc2)[C@@H]2C(C)=CC[C@H]12` [I-100] were, in that order, 21.9% and 23.3%.
Turning to `COC(=O)C1=CO[C@@H](OC(=O)NCCc2c[nH]c3ccccc23)[C@@H]2C(C)=CC[C@H]12` [I-115], the results for the inhibition at 320 µM (stock) in assay [1] and in assay [2] were 3.1% and 6.8%, respectively.
As for `COC(=O)C1=CO[C@@H](OC(=O)NCC#N)[C@@H]2C(C)=CC[C@H]12` [I-132], the inhibition at 320 µM (stock) in assay [1] was 15.6%; in assay [2] it was 3.9%.
For `COC(=O)C1=CO[C@@H](OC(=O)Nc2ccc(C)cc2)[C@H]2[C@@H]1CC[C@@H]2C` [I-270] the same measures were 28.7% and 5.9%.
The like results for `COC(=O)C1=CO[C@@H](OC(=O)N2CCN(CCO)CC2)[C@@H]2C(C)=CC[C@H]12` [I-71] were, in that order, 25.4% and 4.1%.
The like results for `COC(=O)C1=CO[C@@H](OC(=O)NC2CC2)[C@H]2[C@@H]1CC[C@@H]2C` [I-218] were, in that order, 25% and 5.4%.
Consider `CNC(=O)O[C@@H]1OC=C(C(=O)NCc2nc3ccccc3[nH]2)[C@H]2C[C@@H]3O[C@]3(C)[C@@H]12` [I-63], for which the inhibition at 320 µM (stock) in assay [1] was determined as 14.2%; in assay [2], 41.7%.
The like results for `COC(=O)C1=COC[C@H]2[C@@H]1C[C@@H]1O[C@@]12COC(=O)NCCCl` [I-291] were, in that order, 7% and 44.5%.
On to `COC(=O)C1=CO[C@@H](OC(=O)NCCCCl)[C@@H]2C(C)=CC[C@H]12` [I-142], for which the inhibition at 320 µM (stock) in assay [1] came out at 9.8%; in assay [2] it was 3.7%.
For `C[C@]12O[C@H]1C[C@@H]1C(C(=O)N3CCN(CCO)CC3)=COC[C@@H]12` [I-304] the same measures were 9.4% and 11.2%.
The like results for `COC(=O)C1=COC[C@@H]2C(C(=O)N3CCN(CCO)CC3)=CC[C@H]12` [I-293] were, in that order, 69.3% and 11.2%.
For `COC(=O)C1=CO[C@@H](OC(=O)NC2CCCCCC2)[C@H]2[C@@H]1CC[C@@H]2C` [I-208] the same measures were 7.6% and 8.2%.
As for `COC(=O)C1=CO[C@@H](OC(=O)NCc2cccnc2)[C@@H]2C(C)=CC[C@H]12` [I-76], the inhibition at 320 µM (stock) in assay [1] came out at 7.6%; in assay [2], 4.6%.
Turning to `COC(=O)C1=CO[C@@H](OC(=O)NCCCl)[C@@H]2C(C)=CC[C@H]12` [I-173], the inhibition at 320 µM (stock) in assay [1] was determined as 108%; in assay [2], 11.4%.
For `CNC(=O)O[C@@H]1OC=C(C(=O)N2C[C@@H](C)O[C@@H](C)C2)[C@H]2CC=C(C)[C@@H]12` [I-311] the same measures were 7.6% and 10.7%.
The like results for `CNC(=O)OCC1=CC[C@@H]2C(C(=O)OC)=CO[C@@H](OC(=O)NC)[C@H]12` [I-287] were, in that order, 35.2% and 30.1%.
For `CNC(=O)O[C@@H]1OC=C(C(=O)N2CCN(CCO)CC2)[C@H]2CC[C@@H](C)[C@@H]12` [I-282] the same measures were 5.8% and 6%.
On to `COC(=O)C1=CO[C@@H](OC(=O)NC2CCN(Cc3ccccc3)CC2)[C@H]2[C@@H]1CC[C@@H]2C` [I-192], for which the figures for the inhibition at 320 µM (stock) in assay [1] and in assay [2] were 7.8% and 4.5%, respectively.
The like results for `COC(=O)C1=CO[C@@H](OC(=O)N2CC=C(c3ccccc3)CC2)[C@H]2[C@@H]1CC[C@@H]2C` [I-242] were, in that order, 5.1% and 4.8%.
With `COC(=O)C1=CO[C@@H](OC(=O)N(C)CC2OCCO2)[C@@H]2C(C)=CC[C@H]12` [I-93], the inhibition at 320 µM (stock) was determined as 5.8% in assay [1] and 2.4% in assay [2].
The like results for `COC(=O)C1=CO[C@@H](OC(=O)Nc2cccc(C(F)(F)F)c2)[C@@H]2C(C)=CC[C@H]12` [I-160] were, in that order, 6.3% and 13.8%.
For `C=CCNC(=O)O[C@@H]1OC=C(C(=O)OC)[C@H]2CC[C@H](C)[C@@H]12` [I-228] the same measures were 7.2% and 2.7%.
The like results for `CCCCCCNC(=O)O[C@@H]1OC=C(C(=O)OC)[C@H]2CC[C@H](C)[C@@H]12` [I-175] were, in that order, 19.5% and 7.5%.
Consider `COC(=O)C1=CO[C@@H](OC(=O)NCCO)[C@@H]2C(C)=CC[C@H]12` [I-84], for which the inhibition at 320 µM (stock) in assay [1] turned out to be 8.8%; in assay [2] it was 21.9%.
The like results for `COC(=O)C1=CO[C@@H](OC(=O)NCCCN(C)C)[C@H]2[C@@H]1CC[C@@H]2C` [I-210] were, in that order, 8% and 8.9%.
The like results for `COC(=O)C1=CO[C@@H](OC(=O)Nc2ccc(Br)cc2)[C@@H]2C(C)=CC[C@H]12` [I-159] were, in that order, 39.5% and 9.8%.
For `COC(=O)C1=CO[C@@H](OC(=O)NCc2ccc(F)cc2)[C@H]2[C@@H]1CC[C@@H]2C` [I-213] the same measures were 21.5% and 6.2%.
For `COC(=O)C1=CO[C@@H](OC(=O)N2CCC(Cc3ccccc3)CC2)[C@H]2[C@@H]1CC[C@@H]2C` [I-199], the inhibition at 320 µM (stock) in assay [1] is 25%; in assay [2], 6%.
The like results for `C[C@]12O[C@H]1C[C@@H]1C(C(=O)N3CCN(CCO)CC3)=CO[C@@H](OC(=O)NCCCl)[C@@H]12` [I-68] were, in that order, 65.6% and 9.2%.
The like results for `COC(=O)C1=CO[C@@H](OC(=O)NCc2ccc(Cl)c(Cl)c2)[C@@H]2C(C)=CC[C@H]12` [I-74] were, in that order, 23.4% and 5.8%.
Regarding `COC(=O)C1=CO[C@@H](OC(=O)N(C)Cc2ccccc2)[C@@H]2C(C)=CC[C@H]12` [I-81], the values for the inhibition at 320 µM (stock) in assay [1] and in assay [2] were 31.2% and 8.3%, respectively.
For `COC(=O)C1=CO[C@@H](OC(=O)NCc2ccc3c(c2)OCO3)[C@H]2[C@@H]1CC[C@@H]2C` [I-234] the same measures were 7.3% and 7.3%.
On to `COC(=O)C1=COC[C@@H]2C(COC(=O)NCCCl)CC[C@H]12` (stereo partly drawn) [I-297], for which the inhibition at 320 µM (stock) came out at 15.2% in assay [1] and 11.2% in assay [2].
The like results for `COC(=O)C1=CO[C@@H](OC(=O)NCCSCc2ccccc2)[C@@H]2C(C)=CC[C@H]12` [I-150] were, in that order, 5.4% and 32.3%.
Regarding `COC(=O)C1=CO[C@@H](OC(=O)Nc2ccccc2F)[C@H]2[C@@H]1CC[C@@H]2C` [I-257], the inhibition at 320 µM (stock) in assay [1] came out at 8%; in assay [2], 3.5%.
For `CCOC(=O)C1=COC(OC(=O)NC)C2C1CC1OC12CO` (stereo not drawn) [I-279] the same measures were 45.1% and 13.2%.
The like results for `COC(=O)C1=CO[C@@H](OC(=O)NCc2cccc(F)c2)[C@H]2[C@@H]1CC[C@@H]2C` [I-232] were, in that order, 6.5% and 2.9%.

For the origin of these results see patent publication US6225478A, “Iridoid derivatives and neovascularization inhibitors containing the same as active ingredient” (Tsumura & Co., priority 1999, dated 2001).
